Test results: ChEMBL document CHEMBL1201862, “PubChem BioAssay data set” (2004)
Activity calls are given as the source filed them.

Key:
HEK293 [1] = assay: cells; conditions: Homo sapiens
HEK293 [2] = assay: cells; conditions: Homo sapiens; remark: listed apart in the source
Troponin, cardiac muscle = Troponin, cardiac muscle (Homo sapiens, UniProt P19429+P45379+P63316); assay: Fluorescence-based biochemical high throughput dose response assay for activators of the calcium sensitivity of cardiac Regulated Thin Filaments (RTF). [Related pubchem assays (depositor defined):AID493008, AID493018, AID504382, AID504383]; assay type: protein-complex assay
Escherichia coli = assay: microbe, parasite or virus in culture
HEK293 [3] = assay: cells; assay type: functional, cell-based; conditions: Homo sapiens
[4] = biological target: Nucleotide-binding oligomerization domain-containing protein 2 (Homo sapiens, UniProt Q9HC29); assay: inhibition of NOD2-driven NF-kB reporter – cell-based, luminescence, uHTS, HEK293 (AID 1566); assay type: functional
HEK293 [5] = assay: NOD2 signaling inhibitors in MDP-stimulated cells, cell-based, uHTS, luminescence (AID 2001); assay type: functional; conditions: Homo sapiens
HEK293 [6] = assay: cells; assay type: functional, cell-based; conditions: Homo sapiens; remark: listed apart in the source
HEK293 [7] = assay: cells; assay type: functional, cell-based; conditions: Homo sapiens; remark: listed apart in the source
HEK293 [8] = assay: inhibition of NOD1-driven NF-kB reporter – cell-based, luminescence, uHTS, primary screen (AID 1578); assay type: functional; conditions: Homo sapiens
HeLa = assay: ATP-based viability loss in HeLa cells – cell-based, CellTiter-Glo luminescence, cherry-pick samples, cytotoxicity control for MITF activator project, dose response (AID 540259); assay type: functional; conditions: Homo sapiens
Cytochrome P450 3A4 = Cytochrome P450 3A4 (Homo sapiens, UniProt P08684);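 further: CYP3A4 tested as one member of a cytochrome P450 panel screen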
Cytochrome P450 2D6 = Cytochrome P450 2D6 (Homo sapiens, UniProt P10635);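 further: CYP2D6 member of a cytochrome P450 panel assay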
Cytochrome P450 2C9 [9] = biological target: T1, Cytochrome P450 2C9 (Homo sapiens, UniProt P11712)
Vero = assay: cells; assay type: functional; conditions: Chlorocebus sabaeus
[10] = decrease of insulin promoter-GFP reporter – imaging, high-content screening, mouse beta cells (AID 1628); assay type: functional; conditions: MIN6
[11] = MIN6 cell viability loss – mouse insulinoma, cytotoxicity control, dose response (AID 2122); assay type: functional;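 further: confirmatory high-throughput counterscreen run to flag cytotoxic compounds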
[12] = biological target: T2, Carboxy-terminal domain RNA polymerase II polypeptide A small phosphatase 1 (Homo sapiens, UniProt Q9GZU7); assay: CTDSP1 inhibitors, concentration-response, biochemical, absorbance readout, ultra-high-throughput screen actives (AID 540297); assay type: functional
T2 sequence (Q9GZU7 whole entry): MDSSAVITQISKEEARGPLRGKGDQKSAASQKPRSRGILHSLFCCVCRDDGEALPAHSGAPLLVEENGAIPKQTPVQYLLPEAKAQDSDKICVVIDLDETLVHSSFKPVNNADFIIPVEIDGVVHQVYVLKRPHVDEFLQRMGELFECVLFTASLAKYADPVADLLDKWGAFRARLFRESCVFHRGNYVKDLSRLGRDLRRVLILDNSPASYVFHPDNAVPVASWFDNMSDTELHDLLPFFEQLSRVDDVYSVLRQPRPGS

Cytochrome P450 2C9 [13] = biological target: T1, Cytochrome P450 2C9; remark: listed apart in the source

With C/C(NN1CCCCC1c1cccnc1)=C1/C(=O)NC(=S)N(C2CCCCC2)C1=O (stereo not given) as the molecule, how does the EC50 (HEK293 [1]) read?
The EC50 was > 59.6 µM (inactive).

What about the EC50 (HEK293 [2]) of the same molecule?
Its EC50 is > 59.6 µM (inactive).

What about the EC50 (Troponin, cardiac muscle) of the same molecule?
The EC50 was 14.9 µM (inactive).

With C[C@@H]1C(c2ccc(F)cc2)=NN(c2ccccc2)[C@H]1C(=O)N1CCOC1=O as the molecule, how does the AC50 (Escherichia coli) read?
Its AC50 is 33.5 µM (active).

Which AC50 (Escherichia coli) does the source give for COc1ccc(OC)c(S(=O)(=O)NCCc2ccccc2)c1 here?
The AC50 was 28.4 µM (active).

For COc1ccc(CCNC(=O)c2ccc3c(c2)N(Cc2ccccc2)CCS3)cc1OC, which IC50 (HEK293 [3]) is on record?
Its IC50 is 8.65 µM (active).

What about the EC50 [4] of the same molecule?
Its EC50 is > 20 µM (inactive).

What about the IC50 (HEK293 [5]) of the same molecule?
The IC50 was 7.53 µM (active).

And the IC50 (HEK293 [6])?
Its IC50 is > 20 µM (inactive).

And the IC50 (HEK293 [7])?
Its IC50 is > 20 µM (inactive).

And the EC50 (HEK293 [8])?
The EC50 was 6.99 µM (active).

For CCCN1C(=O)C(=O)N(CC(=O)c2cc(C)n(C3CC3)c2C)C1=O, which AC50 (HeLa) is on record?
Its AC50 is 62.6 µM (active).

For CN1CCC(=NNC(=O)C(=O)Nc2cccc(Br)c2)CC1, which AC50 (Escherichia coli) is on record?
Its AC50 is 65.2 µM (active).

Which AC50 (Cytochrome P450 3A4) does the source give for Cc1ccccc1-c1cc(N(C)C)ncn1 here?
The AC50 was “inconclusive”.

And the AC50 (Cytochrome P450 2D6)?
Its AC50 is 39.8 µM (inconclusive).

For COc1ccc2c(c1[N+](=O)[O-])CCC/C2=N/OC(=O)c1cccc2ccccc12, which AC50 (Cytochrome P450 2C9 [9]) is on record?
The AC50 was “inconclusive”.

With CCc1cc(-c2nnn(CCC3COCCO3)c2CC)ccc1-c1cn(Cc2ccccc2)nn1 (stereo not given) as the molecule, how does the CC50 (Vero) read?
The CC50 was 23.7 µM (active).

Which IC50 [10] does the source give for c1ccc2c3nc[nH]c(N4CCCC4)c-3nc2c1 here?
The IC50 was 3.72 µM (active).

What about the IC50 [11] of the same molecule?
Its IC50 is 3.1 µM (active).

Which results are given for Cc1cc(C(=O)Nc2ccccc2C(=O)O)ccc1NC(=O)COc1ccccc1Cl?
IC50 (HEK293 [3]): > 20 µM (inactive); IC50 [12]: 6.31 µM (active); EC50 [4]: 5.38 µM (active); IC50 (HEK293 [5]): > 20 µM (inactive); IC50 (HEK293 [6]): > 20 µM (inactive); IC50 (HEK293 [7]): > 20 µM (inactive); EC50 (HEK293 [8]): > 20 µM (inactive)

For CC1(C)CC(NC(=O)c2ccc3c(c2)OCO3)CC(C)(C)N1, which AC50 (Cytochrome P450 3A4) is on record?
Its AC50 is “inconclusive”.

What about the AC50 (Cytochrome P450 2C9 [13]) of the same molecule?
Its AC50 is 8.91 µM (inconclusive).

With Cc1nc2ccccn2c1C(=O)N=Nc1c(O)n(CCC(C)C)c2ccccc12 as the molecule, how does the IC50 [10] read?
Its IC50 is 1.67 µM (active).

What about the IC50 [11] of the same molecule?
The IC50 was 2.72 µM (active).
